Measured values as given in US20070287630A1, “Moisturizing agent with nutrients” (DriWater, Inc., priority 2006, published 2007).

Settings: acetic acid acting as a preservative in the gel

- effect on gel degradation in soil: slow gel degradion in soil
SMILES: CC(=O)O [acetic acid]
